# Results as given in patent US6207399A, “Methods of determining endogenous thrombin potential (ETP) and thrombin substrates for use in said methods” (Hemker; Hendrik Coenraad, priority 1995, dated 2001).
# Legend:
# euglobulin thrombin = target: T1, euglobulin thrombin (Homo sapiens, UniProt P00734); assay: Decay constants of thrombin in plasma; assay type: biochemical; details: [S] 25 mM in plasma
# T1 construct: The euglobulin thrombin fraction was prepared from defibrinated human plasma; from tissue; host or cells: defibrinated human plasma (euglobulin fraction, acid precipitation, method of Josso and Prou-Wartelle)
# Procedure: (§1) To this mixture was added 10 μL of a thrombin preparation to achieve a final concentration of 100 nM. At regular time intervals (5-10 s) 10 μL samples were subsampled into 490 μL buffer B which contained 200 μM of S2238 to determine thrombin activity. After 2 min the reaction was stopped by adding 300 μL 1M citric acid. The moment of sampling and stopping were recorded on a personal computer with pushbutton-equipped pipettes. The optical density was then read at 405 nm and the obtained amidolytic activities were used to calculate the decay constants. The obtained decay constant is the sum of the decay constants of the reaction of thrombin with antithrombin III (k1) and α2 -macroglobulin (k2).
# as §1, with “Decay constants of thrombin in plasma: To 120 μL defibrinated plasma was added: 50 μL of buffer A which contained the substances to be tested. To” for “To”, “was” for “was then”
# [1] = test system: thrombin generation in tissue factor triggered plasma; assay: Manual determination of thrombin generation in plasma (subsampling method) and calculated prothrombinase activity; assay type: biochemical, human
# Procedure: Manual determination of thrombin generation in plasma: Extrinsic pathway: To 480 μL defibrinated plasma were added: 172 μL buffer A which contains the substrate at concentrations between 0 to 2000 μM and 20 μL of a 54 μM phospholipid solution (final concentration: 1.5 μM). After incubation of 4 min at 37° C., 24 μL tissue factor (undiluted) was added. Thrombin formation started at zero time by adding 24 μL of a 0.5 M CaCl2 solution (final concentration: 16.67 mM). At regular time intervals of 12 s samples of 10 μL were subsampled as described above. From the amidolytic activities thus obtained, the thrombin generation curve can be drawn. […] Intrinsic pathway: To 480 μL defibrinated plasma were added: 168 μL buffer A which contains the substrate at concentrations between 0 to 1000 μM and 48 μL Actin FS (undiluted). This mixture was intensively mixed and incubated for 4 min at 37° C. Thrombin generation was started at zero time by adding 24 μL of a 0.5 M CaCl2 solution (final concentration: 16.67 mM).
# Influence of the substrate on the prothrombinase-complex: With the obtained decay constants and from the curves obtained by the subsampling method we calculated the course of prothrombin conversion and the course of prothrombinase concentration.
# Manual determination of thrombin generation in plasma: Extrinsic pathway: To 480 μL defibrinated plasma were added: 172 μL buffer A which contained the substrate at concentrations between 0 to 2000 μM and 20 μL of a 54 μM phospholipid solution (final concentration: 1.5 μM). After incubation for 4 min at 37° C., 24 μL tissue factor (undiluted) was added. Thrombin formation started at zero time by adding 24 μL of a 0.5 M CaCl2 solution (final concentration: 16.67 mM). At regular time intervals of 12 s samples of 10 μL were subsampled as described above. From the amidolytic activities thus obtained, the thrombin generation curve can be drawn.
# Influence of the substrate on the prothrombinase-compzex: With the obtained decay constants and from the curves obtained by the subsampling method we calculated the course of prothrombin conversion and the course of prothrombinase concentration.
# [2] = test system: thrombin formation in plasma; assay: Continuous registration of the thrombin generation curve (continuous assay of ETP); assay type: biochemical, human; details: 25 mM hydroxylamine
# Procedure: Continuous registration of the thrombin generation curve: Extrinsic pathway: In a polystyrene microcuvette were added: 400 μL defibrinated plasma, 20 μL of a 45 μM phospholipid solution (final concentration: 1.5 μM), 140 μL of buffer A which contains the substrate at the desired final concentration (100-2000 μM). After 4 min of incubation at 37° C., 20 μL tissue factor (undiluted) was added. Thrombin generation was started by adding 20 μL of a 0.5 M CaCl2 solution (final concentration: 16.67 mM); during the measurement the temperature was kept at 37° C. The optical density was monitored at 405 nm. From the obtained optical density curve, the first derivative was calculated. […] The optical density was measured at 37° C. at 405 nm during 20 min.
# Continuous registration of the thrombin generation curve: Extrinsic pathway: In a polystyrene microcuvette were added: 400 μL defibrinated plasma, 20 μL of a 45 μM phospholipid solution (final concentration: 1.5 μM) and 140 μL of buffer A which contains the substrate at the desired final concentration (500 μM). […] The optical density was monitored at 405 nm. From the obtained optical density curve, the first derivative was calculated giving the enzyme concentration during the measurement. […] The optical density was measured at 37° C. at 405 nm during 20 min. […] The optical density was measured at 37° C. at 405 nm during 25 min.
structure (smiles),measurement,setting,value
"NO [hydroxylamine, reference compound]","(k1,corr) = k1,corr /1.856",euglobulin thrombin,0.585 min⁻¹
same,"k1,corr : k1 after correcting for k2,M and 0.170",euglobulin thrombin,1.085 min⁻¹
same,k1 : AT-III dependent decay of thrombin,euglobulin thrombin,1.253 min⁻¹
same,k2 : α2 M dependent decay of thrombin,euglobulin thrombin,0.059 min⁻¹
same,koverall,euglobulin thrombin,1.312 min⁻¹
same,t1/2,euglobulin thrombin,31.70 s
same,"k2,M : k2 determined by the subsampling method",[1]; [S] 25 mM in plasma,0.057 min⁻¹
same,influence on the prothrombinase complex / coagulation cascade,[1]; calculated from decay constants and manual thrombin generation curves,did not influence the coagulation cascade
same,AA: amidolytic activity (maximum),[1]; hydroxylamine 25 mM,383.88 mOD/min
same,PT: prothrombinase concentration (maximum),[1]; hydroxylamine 25 mM,1227 mOD/min
same,T: thrombin concentration (maximum),[1]; hydroxylamine 25 mM,378.03 mOD/min
same,t: time point at which maximum of amidolytic activity is achieved,[1]; hydroxylamine 25 mM,72 s
same,t: time point at which maximum of prothrombinase concentration is achieved,[1]; hydroxylamine 25 mM,36 s
same,t: time point at which maximum of thrombin concentration is achieved,[1]; hydroxylamine 25 mM,72 s
same,residual amidolytic activity of the α2 M-thrombin complex,[2],substantially reduced
